From US20220249534A1, “METHOD OF TREATING CANCER WITH NUCLEOTIDE THERAPEUTICS” (Massachusetts Institute of Technology, priority 2021, published 2022)
Where two headings read alike, the source gives them in different places.

What was measured:
[1] = test system: 143B cells; assay: Proliferation rate of 143B cells with added single nucleoside/base; format: cell-based; conditions: Homo sapiens, read-out: Added nucleoside/base concentration that slows proliferation by half
Protocol: (§1) This effect was dose-titratable over a 0.1 mM to 2.0 mM range, with increasing concentrations of multiple single nucleotides completely preventing cell proliferation.
(§2) In Table 1, the approximate concentration of each nucleotide that when added slows the proliferation of the indicated cells by half is shown.
(§3) All adherent and human leukemia cell lines were cultured in DMEM or RPMI supplemented with 10% heat inactivated fetal bovine serum at 37° C. with 5% CO2. The Lys-GFP-ER-HoxA9 63.3 cells were cultured in RPMI supplemented with 10% fetal bovine serum, stem cell factor, and beta-estradiol as described previously (Sykes et al., (2016), Cell. 167(1): 171-186.e15). All cell lines regularly tested negative for mycoplasma.
(§4) To assess proliferation, the number of cells seeded for each cell line allowed for exponential growth over the course of the assay. To assess effects of nucleotide treatment, cells were washed three times with PBS and 4 mL of treatment media was added one day after plating cells. The following formula was used to calculate proliferation rate:
(§5) Doublings per day=[Log2(Final day 4 cell count/Initial day 0 cell count)]/4 days

[2] = test system: A549 cells; assay: Proliferation rate of A549 cells with added single nucleoside/base; format: cell-based, human; conditions: for IC50: Homo sapiens
Protocol: as §1, §2, §3, §4, §5

[3] = test system: U2OS cells; assay: Proliferation rate of U2OS cells with added single nucleoside/base; format: cell-based; conditions: Homo sapiens, read-out: Added nucleoside/base concentration that slows proliferation by half
Protocol: as §1, §2, §3, §4, §5

[4] = test system: MDA-MB-468 cells; assay: Proliferation rate of MDA-MB-468 cells with added single nucleoside/base; format: cell-based; conditions: Homo sapiens
Protocol: as §1, §2, §3, §4, §5

[5] = test system: H1299 cells; assay: Proliferation rate of H1299 cells with added single nucleoside/base; format: cell-based; conditions: Homo sapiens
Protocol: as §1, §2, §3, §4, §5

[6] = test system: A2780 cells; assay: Proliferation rate of A2780 cells with added single nucleoside/base; format: cell-based; conditions: Homo sapiens
Protocol: as §1, §2, §3, §4, §5

[7] = test system: A549 cells; assay: LCMS analysis of intracellular nucleotide levels in A549 cells; format: cell-based, human
Protocol: Where indicated, cells were incubated in media with 4 mM ^15N-amide-glutamine and/or 200 μM ^13C-guanine or ^13C-adenine for 24 hours prior to LCMS Analysis of metabolites. For assessment of metabolites, cells were washed three times with PBS prior to extracting polar metabolites from cells: plates were placed on ice, cells were washed with ice-cold blood bank saline, and 500 μl of ice-cold 80% methanol in water with 250 nM ^13C/^15N labeled amino acid standards (MSK-A2-1.2: Cambridge Isotope Laboratories, Inc.) was added to each well. Cells were scraped, each sample was vortexed for 10 minutes at 4° C., and then centrifuged at maximum speed for 10 minutes at 4° C. Samples were dried under nitrogen gas and resuspended in 25 μl of a 50/50 acetonitrile/water mixture. Metabolites were measured using a Dionex UltiMate 3000 ultra-high performance liquid chromatography system connected to a Q Exactive benchtop Orbitrap mass spectrometer, equipped with an Ion Max source and a HESI II probe (Thermo Fisher Scientific). […]
Metabolites were monitored in full-scan, polarity-switching, mode. […] Relative quantitation of metabolites was performed with XCalibur QuanBrowser 2.2 (Thermo Fisher Scientific) using a 5 ppm mass tolerance and referencing an in-house retention time library of chemical standards. […]

[8] = Comet tail assay of DNA damage; format: cell-based; conditions: 24 hours; small fraction of treated cells
Excerpt: The cancer cell is contacted with that amount of purine, purine precursor, purine analog, pyrimidine, pyrimidine precursor, and/or pyrimidine which, once entering the cell, changes the cell's internal baseline purine:pyrimidine ratio and induces replication stress in the cell. The induction of replication stress can be measured, in any way known in the art, e.g., with the Comet assay which measures DNA damage. In this assay, cells are mixed in low melting point agarose on a microscope slide and are lysed with a detergent, e.g., 1% N-lauryl sarcosine, 0.5% Triton X-100, DMSO, and high salt, e.g., 2.5 M NaCl, 0.1 M EDTA and 10 mM Tris, to form nucleoids containing supercoiled loops of DNA that are linked to the nuclear matrix. After electrophoresis at high pH structures can be observed resembling comets, visualized by fluorescence microscopy. The intensity of the comet tail relative to the head is proportional to the number of breaks in the DNA. Comets can be scored with dedicated software such as, but not limited to, CaspLab software or OpenComet software.

[9] = test system: Chk1 and Chk2; assay: Replication stress signaling: phosphorylation of ATR/ATM targets Chk1 and Chk2; format: cell-based; conditions: stronger signaling at higher concentrations
Excerpt: To determine if nucleotide imbalance causes replication stress in a cancer cell, targets of the ATR and ATM kinases were examined after the addition of a nucleotide to change the internal nucleotide ratio. The ATR and ATM kinases are components of the cellular response to DNA damage, and sense single-stranded DNA and DNA double-strand breaks, respectively. The respective targets of ATR and ATM, Chk1 and Chk2, are major effectors of the DNA damage response. […] The appearance of p-Chk1 occurred first between 12 hours and 24 hours of guanine treatment, followed by the appearance of p-Chk2 between 48 hours and 72 hours. Induction of the replication stress response was reversed by addition of adenine together with guanine. A similar induction of ATR and ATM signaling occurred with any excess nucleotide supplementation that impaired S phase progression, but not with leucine deprivation, consistent with impaired DNA replication. Inhibiting total purine or pyrimidine synthesis induced phosphorylation of Chk1 and Chk2 but to a lesser extent than Guanosine treatment.

[10] = test system: U937 cells; assay: Differentiation of U937 cells by flow cytometry; format: cell-based, human; conditions: 10^-3 to 10^-7 M, FIG. 4C
Protocol: (§6) That exogenous nucleotides can direct cancer cells to undergo differentiation was determined as follows. Thymidine was added at concentrations ranging from 10^−3 to 10^−7 M to 63.3 cells (FIG. 4A), THP1 cells (FIG. 4B) and U937 cells (FIG. 4C). Cell differentiation was monitored by CD11b+/CD16+ expression, and by CD11b+ total expression.
as §3
(§7) The Lys-GFP-ER-HoxA9 cells or human leukemia cell lines were grown in round-bottom tissue-culture treated plates. Following a 4-day incubation with nucleotides, cells were incubated with antibodies, washed, incubated with FACS buffer containing DAPI, and analyzed by flow cytometry. Viability was assessed by forward and side scatter as well as by DAPI exclusion. For the Lys-GFP-ER-HoxA9 63.3 cells, differentiation was assessed by GFP and staining with an anti-CD11b-APC antibody (final concentration of 1:400; Clone M1/70, Biolegend). […]

[11] = test system: 63.3 cells; assay: Differentiation of Lys-GFP-ER-HoxA9 63.3 cells by flow cytometry; format: cell-based; conditions: 10^-3 to 10^-7 M, FIG. 4A
Protocol: as §6, §3, §7

[12] = test system: THP1 cells; assay: Differentiation of THP1 cells by flow cytometry; format: cell-based, human; conditions: 10^-3 to 10^-7 M, FIG. 4B
Protocol: as §6, §3, §7

[13] = 143B cells, approximate concentration
[14] = A549 cells, approximate concentration, read-out: Added nucleoside/base concentration that slows proliferation by half
[15] = U2OS cells, approximate concentration
[16] = MDA-MB-468 cells, approximate concentration, read-out: Added nucleoside/base concentration that slows proliferation by half
[17] = NCI-H1299, H1299 cells, approximate concentration, read-out: Added nucleoside/base concentration that slows proliferation by half
[18] = A2780 cells, approximate concentration, read-out: Added nucleoside/base concentration that slows proliferation by half

| SMILES | IC50 [2, 14] | IC50 [3, 15] | IC50 [4, 16] | IC50 [5, 17] | IC50 [6, 18] | IC50 [1, 13] | also measured |
| --- | --- | --- | --- | --- | --- | --- | --- |
| Nc1ccn([C@H]2C[C@H](O)[C@@H](CO)O2)c(=O)n1 [Deoxycytidine] |  |  |  |  |  |  | Effect on proliferation ([2]; A549 cells, FIG. 1B, higher concentrations): blocked proliferation |
| Nc1nc2nc[nH]c2c(=O)[nH]1 [G, guanine] |  |  |  |  |  |  | IC50 ([1]; 143B): 120 µM; IC50 ([2]; A549, read-out: Added nucleoside/base concentration that slows proliferation by half): 80 µM; Intracellular pools of guanylate nucleotides (GTP/GDP/GMP) ([7]; FIGS. 2A and 3A-3B): dramatically increased; Intracellular levels of adenylate nucleotides (ATP/ADP/AMP) ([7]; FIGS. 2B and 3C-3D): decreased; DNA damage by comet tail assay [8]: minor increases in DNA damage; Phosphorylation of Chk1 and Chk2 (replication stress response) [9]: robust phosphorylation; IC50 ([3]; U2OS): 250 µM; IC50 ([4]; MDA-MB-468, read-out: Added nucleoside/base concentration that slows proliferation by half): 150 µM; IC50 ([5]; NCI-H1299, read-out: Added nucleoside/base concentration that slows proliferation by half): 200 µM; IC50 ([6]; A2780, read-out: Added nucleoside/base concentration that slows proliferation by half): 100 µM |

The next lines start with results.

| IC50 [2, 14] | IC50 [3, 15] | IC50 [4, 16] | IC50 [5, 17] | IC50 [6, 18] | SMILES | IC50 [1, 13] | also measured |
| --- | --- | --- | --- | --- | --- | --- | --- |
| 2100 µM | 950 µM | 800 µM | 1100 µM | 1000 µM | Nc1ncnc2c1ncn2[C@@H]1O[C@H](CO)[C@@H](O)[C@H]1O [A, adenosine] | 1000 µM |  |
| 500 µM | 500 µM | 150 µM | 700 µM | 300 µM | Cc1cn([C@H]2C[C@H](O)[C@@H](CO)O2)c(=O)[nH]c1=O [T, thymidine] |  | Cell differentiation (CD11b+/CD16+ and CD11b+ total expression) [10]: induced cell differentiation in a concentration dependent manner; Cell differentiation (CD11b+ markers) [11]: induced cell differentiation in a concentration dependent manner; Cell differentiation (CD11b+/CD16+ and CD11b+ total expression) [12]: induced cell differentiation in a concentration dependent manner |
| 1200 µM | 600 µM | 225 µM | 800 µM | 300 µM | Nc1ncnc2c1ncn2[C@H]1C[C@H](O)[C@@H](CO)O1 [dA, deoxyadenosine] | 600 µM |  |
